Laboratory results: patent US10392383B2, “3-(1H-benzo[d]imidazol-2-yl)-1H-pyrazolo[4,3-b]pyridines and therapeutic uses thereof” (Samumed, LLC, priority 2015, dated 2019)
pEC50: −log10 of the molar value.

Experiments:
Assay type in all cases: cell-based
IL-6 (THP-1 cells) = assay: IL-6 inhibition in LPS-stimulated THP-1 monocytes (HTRF); conditions: Homo sapiens, IL-6 HTRF; for pEC50: 500 ng/mL LPS, Table 6; for inhibition at 10 µM: LPS, Table 6, read-out: percent inhibition at 10 μM (given in parentheses for EC50 >10 μM)
Method: Human Monocyte Cell Culture: Human monocyte cell line (THP-1 cells; Catalog # TIB-202, ATCC, Manassas, Va.) were cultured in Roswell Park Memorial Institute (RPMI) 1640 Medium (Catalog #21870-100, Buffalo, N.Y.) with 1% L-glutamine, 1% HEPES, 1% Sodium Pyruvate, 2% Sodium Bicarbonate supplemented with 100 units/mL penicillin, 50 μg/mL streptomycin, 2-mercaptoethanol (0.05 mM) [basal medium] and 10% fetal bovine serum (Catalog #16140089, Life Technologies, Carlsbad, Calif.) at 37° C. and 5% CO2.
Compound Screening: THP-1 cells were cultured in basal media with 1% FBS for 24 hours before the start of the assay. Each compound was dissolved in DMSO as a 10 mM stock and used to prepare compound source plates. Serial dilution (1:3, 10-point dose-response curves starting from 10 μM) and compound transfer was performed using the ECHO 550 (Labcyte, Sunnyvale, Calif.) into 384-well white low volume assay plates (Greiner Bio-One) with appropriate DMSO backfill for a final DMSO concentration of 0.1%. THP-1 cells were plated at 5000 cells/well in the 384-well plates and incubated at 37° C. for 2 h. 500 ng/mL of LPS was added after 2 hours and cells were incubated for another 22 hours at 37° C. Plates were spun in a centrifuge for 1 minute at […] and a mixture of anti-IL6 XL665, and anti-IL6 Cryptate diluted in reconstitution buffer (Cisbio Inc.) was added to each well. Following incubation for 3 hrs at room temperature, Homogeneous Time-Resolved Fluorescence (HTRF) was measured using the Envision (Perkin Elmer) at 665 nm and […]. The ratio of fluorescence at 665 nm to 620 nm was used as a readout for IL6 quantification. All samples were processed in duplicate. Readings were normalized to DMSO treated cells and normalized activities were utilized for EC50 calculations using the dose-response log (inhibitor) vs. response-variable slope (four parameters) nonlinear regression feature available in GraphPad Prism 5.0 (or Dotmatics). For EC50 of >10 μM, the percent inhibition at 10 μM is provided.

[1] = test system: Wnt activity (Sp5-Luc reporter, Wnt-responsive promoter) in SW480 colon carcinoma cells; assay: Wnt activity screening assay: Sp5-Luc reporter gene assay in SW480 cells; conditions: Homo sapiens; for pEC50: overnight incubation, 10-point curve starting from 10 μM; for inhibition at 10 µM: read-out: percent inhibition at 10 μM (given for EC50 of >10 μM)
Source text: The screening assay for Wnt activity is described as follows. Reporter cell lines can be generated by stably transducing cancer cell lines (e.g., colon cancer) or primary cells (e.g., IEC-6 intestinal cells) with a lentiviral construct that includes a Wnt-responsive promoter driving expression of the firefly luciferase gene.
SW480 colon carcinoma cells were transduced with a lentiviral vector expressing luciferase with a human Sp5 promoter consisting of a sequence of eight TCF/LEF binding sites. SW480 cells stably expressing the Sp5-Luc reporter gene and a hygromycin resistance gene were selected by treatment with 150 μg/mL of hygromycin for 7 days. These stably transduced SW480 cells were expanded in cell culture and used for all further screening activities. Each compound was dissolved in DMSO as a 10 mM stock and used to prepare compound source plates. Serial dilution (1:3, 10-point dose-response curves starting from 10 μM) and compound transfer was performed using the ECHO 550 (Labcyte, Sunnyvale, Calif.) into 384-well white solid bottom assay plates (Greiner Bio-One) with appropriate DMSO backfill for a final DMSO concentration of 0.1%. For Sp5-Luc reporter gene assays, the cells were plated at 4,000 cells/well in 384-well plates with medium containing 1% fetal bovine serum and incubated overnight at 37° C. and 5% CO2. Following incubation, 20 μl of BrightGlo luminescence reagent (Promega) was added to each well of the 384-well assay plates. The plates were placed on an orbital shaker for 2 min and then luminescence was quantified using the Envision (Perkin Elmer) plate reader. Readings were normalized to DMSO only treated cells, and normalized activities were utilized for EC50 calculations using the dose-response log (inhibitor) vs. response-variable slope (four parameters) nonlinear regression feature available in GraphPad Prism 5.0 (or Dotmatics). For EC50 of >10 μM, the percent inhibition at 10 μM is provided.

SW480 colon cancer cells = assay: Cell viability assay (CellTiter-Blue) in SW480 cells; conditions: Homo sapiens, 96 h, four days; for pEC50: CellTiter-Blue, 10 μM to 0.0045 μM; for inhibition at 10 µM: read-out: percent inhibition at 10 μM (given for EC50 of >10 μM)
Method: Representative compounds were screened using the following assay procedure to assess the effect on cell viability as described below.
Each compound was dissolved in DMSO as a 10 mM stock and used to prepare compound source plates. Serial dilution (1:3, 8-point dose-response curves from 10 μM to 0.0045 μM) and compound transfer was performed using the ECHO 550 (Labcyte, Sunnyvale, Calif.) into 96-well clear bottom, black-walled plates (Corning-Costar).
Approximately 2×10^3 SW480 colon cancer cells were seeded into each well and allowed to incubate in the presence or absence of compound for four days at 37° C./5% CO2. Eight replicates of DMSO-treated cells served as controls and cells treated with compound were performed in duplicate.
After incubation, 20 μL of CellTiter-Blue (Promega) was added to each well allowed to incubate for approximately 3 hours. This reagent was a buffered solution which contains resazurin, metabolically active cells were able to reduce rezarurin (blue) into resorufin (pink) which was highly fluorescent. This measured fluorescence was used as a readout for cell viability.
After incubation, the plates were read at Ex 560 nm Em 590 nm (Cytation 3, BioTek). Dose-response curves were generated and EC50 concentration values were calculated using non-linear regression curve fit in the GraphPad Prism (San Diego, Calif.) or Dotmatics' Studies Software (Bishops Stortford, UK). For EC50 of >10 μM, the percent inhibition at 10 μM is provided.

| SMILES | pEC50 (IL-6 (THP-1 cells)) | pEC50 [1] | pEC50 (SW480 colon cancer cells) | inhibition at 10 µM (IL-6 (THP-1 cells)) [%] | inhibition at 10 µM [1] [%] | inhibition at 10 µM (SW480 colon cancer cells) [%] |
| --- | --- | --- | --- | --- | --- | --- |
| CC(C)CC(=O)Nc1cncc(-c2ccc3[nH]nc(-c4nc5c(-c6ccc(Cl)s6)cccc5[nH]4)c3n2)c1 [Compound 1037, N-(5-(3-(4-(5-Chlorothiophen-2-yl)-1H-benzo[d]imidazol-2-yl)-1H-pyrazolo [4,3-b]pyridin-5-yl)pyridin-3-yl)-3-methylbutanamide] | < 5.00 | 5.72 | 5.01 | 19.5 | – | – |
| Fc1cccc(-c2cccc3[nH]c(-c4n[nH]c5ccc(-c6cn[nH]c6)nc45)nc23)c1 [Compound 507, 3-(4-(3-Fluorophenyl)-1H-benzo[d]imidazol-2-yl)-5-(1H-pyrazol-4-yl)-1H-pyrazolo[4,3-b]pyridine] | < 5.00 | < 5.00 | 6.01 | 31.7 | 36 | – |
| CN(C)c1cncc(-c2ccc3[nH]nc(-c4nc5c(N6CCCCC6)cccc5[nH]4)c3n2)c1 [Compound 175, N,N-dimethyl-5-(3-(4-(piperidin-1-yl)-1H-benzo[d]imidazol-2-yl)-1H-pyrazolo[4,3-b]pyridin-5-yl)pyridin-3-amine] | 5.53 | 5.67 | 5.22 | – | – | – |
| O=C(Nc1cncc(-c2ccc3[nH]nc(-c4nc5c(-c6ccccc6F)cccc5[nH]4)c3n2)c1)C1CCCC1 [Compound 78, N-(5-(3-(4-(2-Fluorophenyl)-1H-benzo[d]imidazol-2-yl)-1H-pyrazolo[4,3-b]pyridin-5-yl)pyridin-3-yl)cyclopentanecarboxamide] | < 5.00 | < 5.00 | < 5.00 | 19.1 | 29 | 20 |
| CN(C)CCNc1cc(F)cc(-c2cccc3[nH]c(-c4n[nH]c5ccc(-c6cnccn6)nc45)nc23)c1 [Compound 792, N^1-(3-Fluoro-5-(2-(5-(pyrazin-2-yl)-1H-pyrazolo[4,3-b]pyridin-3-yl)-1H-benzo[d]imidazol-4-yl)phenyl)-N^2,N^2-dimethylethane-1,2-diamine] | 6.16 | 5.40 | 5.37 | – | – | – |
| Cc1cn(-c2cccc3[nH]c(-c4n[nH]c5ccc(-c6cncc(N7CC(N)C7)n6)nc45)nc23)cn1 [Compound 622, 1-(6-(3-(4-(4-Methyl-1H-imidazol-1-yl)-1H-benzo[d]imidazol-2-yl)-1H-pyrazolo[4,3-b]pyridin-5-yl)pyrazin-2-yl)azetidin-3-amine] | 6.42 | < 5.00 | < 5.00 | – | 12.6 | 17.8 |
| CCCC(=O)Nc1cncc(-c2ccc3[nH]nc(-c4nc5c(-c6ccncc6)cccc5[nH]4)c3n2)c1 [Compound 129, N-(5-(3-(4-(Pyridin-4-yl)-1H-benzo[d]imidazol-2-yl)-1H-pyrazolo[4,3-b]pyridin-5-yl)pyridin-3-yl)butyramide] | < 5.00 | < 5.00 | < 5.00 | 34.9 | 0 | 0 |
| CC(C)C(=O)Nc1cncc(-c2ccc3[nH]nc(-c4nc5c(N6CCN(C)CC6)cccc5[nH]4)c3n2)c1 [Compound 233, N-(5-(3-(4-(4-Methylpiperazin-1-yl)-1H-benzo[d]imidazol-2-yl)-1H-pyrazolo[4,3-b]pyridin-5-yl)pyridin-3-yl)isobutyramide] | < 5.00 | < 5.00 | < 5.00 | 42.9 | 7.3 | 6.4 |
| CC(C)(C)C(=O)Nc1cncc(-c2ccc3[nH]nc(-c4nc5c(-c6ccc(Cl)s6)cccc5[nH]4)c3n2)c1 [Compound 1043, N-(5-(3-(4-(5-chlorothiophen-2-yl)-1H-benzo[d]imidazol-2-yl)-1H-pyrazolo[4,3-b]pyridin-5-yl)pyridin-3-yl)pivalamide] | < 5.00 | 5.88 | 5.28 | 16.9 | – | – |

Continued, in another order:

| pEC50 (IL-6 (THP-1 cells)) | pEC50 [1] | pEC50 (SW480 colon cancer cells) | SMILES | inhibition at 10 µM (IL-6 (THP-1 cells)) [%] | inhibition at 10 µM [1] [%] | inhibition at 10 µM (SW480 colon cancer cells) [%] |
| --- | --- | --- | --- | --- | --- | --- |
| 5.50 | 6.27 | 5.85 | Cn1cc(-c2ccc3[nH]nc(-c4nc5c(-c6cc(F)cc(CNS(C)(=O)=O)c6)cccc5[nH]4)c3n2)cn1 [Compound 764, N-(3-Fluoro-5-(2-(5-(1-methyl-1H-pyrazol-4-yl)-1H-pyrazolo[4,3-b]pyridin-3-yl)-1H-benzo[d]imidazol-4-yl)benzyl)methanesulfonamide] | – | – | – |
| 5.01 | 5.66 | 5.52 | Cn1cc(-c2ccc3[nH]nc(-c4nc5c(-c6ccc(F)cc6)cccc5[nH]4)c3n2)c(CO)n1 [Compound 1129, (4-(3-(4-(4-Fluorophenyl)-1H-benzo[d]imidazol-2-yl)-1H-pyrazolo[4,3-b]pyridin-5-yl)-1-methyl-1H-pyrazol-3-yl)methanol] | – | – | – |
| < 5.00 | < 5.00 | < 5.00 | Cc1ccncc1-c1ccc2[nH]nc(-c3nc4c(-c5ccncc5)cccc4[nH]3)c2n1 [Compound 117, 5-(4-Methylpyridin-3-yl)-3-(4-(pyridin-4-yl)-1H-benzo[d]imidazol-2-yl)-1H-pyrazolo[4,3-b]pyridine] | 51.4 | 44.9 | 16.9 |
| 5.03 | 6.59 | 6.20 | Cc1ncc(-c2ccc3[nH]nc(-c4nc5c(-c6ccoc6)cccc5[nH]4)c3n2)n1C [Compound 685, 5-(1,2-Dimethyl-1H-imidazol-5-yl)-3-(4-(furan-3-yl)-1H-benzo[d]imidazol-2-yl)-1H-pyrazolo[4,3-b]pyridine] | – | – | – |
| < 5.00 | 6.03 | 6.21 | Cn1cc(-c2ccc3[nH]nc(-c4nc5c(-c6ccc7c(c6)OCO7)cccc5[nH]4)c3n2)c(CO)n1 [Compound 1152, (4-(3-(4-(Benzo[d][1,3]dioxol-5-yl)-1H-benzo[d]imidazol-2-yl)-1H-pyrazolo[4,3-b]pyridin-5-yl)-1-methyl-1H-pyrazol-3-yl)methanol] | 23.3 | – | – |
